Measured values published in patent US20040156869A1, “2-substituted quinazolin-4-ylamine analogues” (Neurogen Corporation, priority 2002, published 2004).

molecular target: human capsaicin receptor (VR1) (Homo sapiens, UniProt Q8NER1); assay: Capsaicin receptor binding assay ([3H]RTX competition, VR1-transfected HEK293 membranes)
Sequence (Q8NER1 whole entry): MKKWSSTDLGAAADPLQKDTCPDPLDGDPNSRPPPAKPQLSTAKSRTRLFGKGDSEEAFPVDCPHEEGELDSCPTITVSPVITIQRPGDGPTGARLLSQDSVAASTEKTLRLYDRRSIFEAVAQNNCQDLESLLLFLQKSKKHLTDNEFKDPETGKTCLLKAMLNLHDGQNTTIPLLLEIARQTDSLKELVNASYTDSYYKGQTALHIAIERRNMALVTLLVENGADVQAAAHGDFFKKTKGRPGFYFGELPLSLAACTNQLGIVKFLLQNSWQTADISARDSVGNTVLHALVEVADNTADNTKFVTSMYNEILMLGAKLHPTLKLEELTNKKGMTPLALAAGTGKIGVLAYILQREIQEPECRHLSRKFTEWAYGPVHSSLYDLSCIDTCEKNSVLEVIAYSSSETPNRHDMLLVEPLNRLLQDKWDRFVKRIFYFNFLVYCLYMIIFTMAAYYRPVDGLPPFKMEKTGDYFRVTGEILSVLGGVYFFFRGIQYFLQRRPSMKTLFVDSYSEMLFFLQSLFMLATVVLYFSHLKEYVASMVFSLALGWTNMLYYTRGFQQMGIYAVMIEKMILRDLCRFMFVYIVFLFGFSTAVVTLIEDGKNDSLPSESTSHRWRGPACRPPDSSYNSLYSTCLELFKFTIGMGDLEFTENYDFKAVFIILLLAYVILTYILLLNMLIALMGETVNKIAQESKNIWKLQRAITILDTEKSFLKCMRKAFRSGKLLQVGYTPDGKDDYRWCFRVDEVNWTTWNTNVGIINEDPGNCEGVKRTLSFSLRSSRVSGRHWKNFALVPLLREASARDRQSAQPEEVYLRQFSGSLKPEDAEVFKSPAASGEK

Ki, < 1000 nM:
CCc1ccc(Nc2nc(CN3C[C@H](C)O[C@@H](C)C3)nc3cc(-c4ncccc4Cl)ccc23)cc1 [Compound 651, (S,S)-[7-(3-Chloro-pyridin-2-yl)-2-(2,6-dimethyl-morpholin-4-ylmethyl)-quinazolin-4-yl]-(4-ethyl-phenyl)-amine]
CC(C)c1ccc(Nc2nc(CN3C[C@@H](C)O[C@H](C)C3)nc3cc(-c4ncccc4C(F)(F)F)ccc23)cc1 [Compound 652, (R,R)-[2-(2,6-Dimethyl-morpholin-4-ylmethyl)-7-(3-trifluoromethyl-pyridin-2-yl)-quinazolin-4-yl]-(4-isopropyl-phenyl)-amine]
C[C@@H]1CN(Cc2nc(Nc3ccc(Cl)cc3)c3ccc(-c4ncccc4C(F)(F)F)cc3n2)C[C@@H](C)O1 [Compound 654, (R,R)-(4-Chloro-phenyl)-[2-(2,6-dimethyl-morpholin-4-ylmethyl)-7-(3-trifluoromethyl-pyridin-2-yl)-quinazolin-4-yl]-amine]
CC(C)S(=O)(=O)c1ccc(Nc2nc(CN3C[C@@H](C)O[C@H](C)C3)nc3cc(-c4ncccc4C(F)(F)F)ccc23)cc1 [Compound 655, (R,R)-[2-(2,6-Dimethyl-morpholin-4-ylmethyl)-7-(3-trifluoromethyl-pyridin-2-yl)-quinazolin-4-yl]-[4-(propane-2-sulfonyl)-phenyl]-amine]
O=C(OCc1ccccc1)N1CCC[C@H]1c1nc(Nc2ccc(C(F)(F)F)cc2)c2ccc(-c3ncccc3C(F)(F)F)cc2n1 [Compound 656, (S)-2-[4-(4-Trifluoromethyl-phenylamino)-7-(3-trifluoromethyl-pyridin-2-yl)-quinazolin-2-yl]-pyrrolidine-1-carboxylic acid benzyl ester]
C[C@@H]1CN(Cc2nc(Nc3ccc(C(F)(F)F)cc3)c3ncc(-c4ncccc4C(F)(F)F)cc3n2)C[C@@H](C)O1 [Compound 657, (R,R)-[2-(2,6-Dimethyl-morpholin-4-ylmethyl)-7-(3-trifluoromethyl-pyridin-2-yl)-pyrido[3,2-d]pyrimidin-4-yl]-(4-trifluoromethyl-phenyl)-amine]
C[C@H]1CN(Cc2nc(Nc3ccc(C(F)(F)F)cc3)c3ncc(-c4ncccc4C(F)(F)F)cc3n2)C[C@H](C)O1 [Compound 658, (S,S)-[2-(2,6-Dimethyl-morpholin-4-ylmethyl)-7-(3-trifluoromethyl-pyridin-2-yl)-pyrido[3,2-d]pyrimidin-4-yl]-(4-trifluoromethyl-phenyl)-amine]
FC(F)(F)c1ccc(Nc2nc(CN3CCCCCC3)nc3cc(-c4ncccc4C(F)(F)F)cnc23)cc1 [Compound 659, [2-Azepan-1-ylmethyl-7-(3-trifluoromethyl-pyridin-2-yl)-pyrido[3,2-d]pyrimidin-4-yl]-(4-trifluoromethyl-phenyl)-amine]
FC(F)(F)c1ccc(Nc2nc(CN3CCSCC3)nc3cc(-c4ncccc4C(F)(F)F)cnc23)cc1 [Compound 660, [2-Thiomorpholin-4-ylmethyl-7-(3-trifluoromethyl-pyridin-2-yl)-pyrido[3,2-d]pyrimidin-4-yl]-(4-trifluoromethyl-phenyl)-amine]
CC1(C)CCCN(Cc2nc(Nc3ccc(C(F)(F)F)cc3)c3ncc(-c4ncccc4C(F)(F)F)cc3n2)C1 [Compound 661, [2-(3,3-Dimethyl-piperidin-1-ylmethyl)-7-(3-trifluoromethyl-pyridin-2-yl)-pyrido[3,2-d]pyrimidin-4-yl]-(4-trifluoromethyl-phenyl)-amine]
C=CCN(C)Cc1nc(Nc2ccc(C(F)(F)F)cc2)c2ncc(-c3ncccc3C(F)(F)F)cc2n1 [Compound 662, [2-[(Allyl-methyl-amino)-methyl]-7-(3-trifluoromethyl-pyridin-2-yl)-pyrido[3,2-d]pyrimidin-4-yl]-(4-trifluoromethyl-phenyl)-amine]
C=CCN(CC=C)Cc1nc(Nc2ccc(C(F)(F)F)cc2)c2ncc(-c3ncccc3C(F)(F)F)cc2n1 [Compound 663, [2-Diallylaminomethyl-7-(3-trifluoromethyl-pyridin-2-yl)-pyrido[3,2-d]pyrimidin-4-yl]-(4-trifluoromethyl-phenyl)-amine]
CCCN(CCC)Cc1nc(Nc2ccc(C(F)(F)F)cc2)c2ncc(-c3ncccc3C(F)(F)F)cc2n1 [Compound 664, [2-Dipropylaminomethyl-7-(3-trifluoromethyl-pyridin-2-yl)-pyrido[3,2-d]pyrimidin-4-yl]-(4-trifluoromethyl-phenyl)-amine]
CCCN(Cc1nc(Nc2ccc(C(F)(F)F)cc2)c2ncc(-c3ncccc3C(F)(F)F)cc2n1)CC1CC1 [Compound 665, [2-[(Cyclopropylmethyl-propyl-amino)-methyl]-7-(3-trifluoromethyl-pyridin-2-yl)-pyrido[3,2-d]pyrimidin-4-yl]-(4-trifluoromethyl-phenyl)-amine]
CCCCN(CCCC)Cc1nc(Nc2ccc(C(F)(F)F)cc2)c2ncc(-c3ncccc3C(F)(F)F)cc2n1 [Compound 666, [2-Dibutylaminomethyl-7-(3-trifluonmethyl-pyridin-2-yl)-pyrido[3,2-d]pyrimidin-4-yl]-(4-trifluoromethyl-phenyl)-amine]
C=C(C)CN(CC)Cc1nc(Nc2ccc(C(F)(F)F)cc2)c2ncc(-c3ncccc3C(F)(F)F)cc2n1 [Compound 667, [2-{[Ethyl-(2-methyl-allyl)-amino]-methyl}-7-(3-trifluoromethyl-pyridin-2-yl)-pyrido[3,2-d]pyrimidin-4-yl]-(4-trifluoromethyl-phenyl)-amine]
C[C@@H]1C[C@H](C)CN(Cc2nc(Nc3ccc(C(F)(F)F)cc3)c3ncc(-c4ncccc4C(F)(F)F)cc3n2)C1 [Compound 668, [2-(3,5-Dimethyl-piperidin-1-ylmethyl)-7-(3-trifluoromethyl-pyridin-2-yl)-pyrido[3,2-d]pyrimidin-4-yl]-(4-trifluoromethyl-phenyl)-amine (cis)]
CC1CCCN(Cc2nc(Nc3ccc(C(F)(F)F)cc3)c3ncc(-c4ncccc4C(F)(F)F)cc3n2)C1 (centres unmarked) [Compound 669, [2-(3-Methyl-piperidin-1-ylmethyl)-7-(3-trifluoromethyl-pyridin-2-yl)-pyrido[3,2-d]pyrimidin-4-yl]-(4-trifluoromethyl-phenyl)-amine]
COCCN(CCOC)Cc1nc(Nc2ccc(C(F)(F)F)cc2)c2ncc(-c3ncccc3C(F)(F)F)cc2n1 [Compound 670, [2-{[Bis-(2-methoxy-ethyl)-amino]-methyl}-7-(3-trifluoromethyl-pyridin-2-yl)-pyrido[3,2-d]pyrimidin-4-yl]-(4-trifluoromethyl-phenyl)-amine]
FC(F)(F)c1ccc(Nc2nc(CN3C=NCCC3)nc3cc(-c4ncccc4C(F)(F)F)ccc23)cc1 [Compound 671, [2-(5,6-Dihydro-4H-pyrimidin-1-ylmethyl)-7-(3-trifluoromethyl-pyridin-2-yl)-quinazolin-4-yl]-(4-trifluoromethyl-phenyl)-amine]
C[C@@H]1CN(Cc2nc(Nc3ccc(C(C)(C)C)cc3)c3ccc(-c4ncccc4Cl)cc3n2)CCO1 [Compound 672, (R)-(4-tert-Butyl-phenyl)-[7-(3-chloro-pyridin-2-yl)-2-(2-methyl-morpholin-4-ylmethyl)-quinazolin-4-yl]-amine]
CC(C)c1ccc(Nc2nc(CN3CCO[C@H](C)C3)nc3cc(-c4ncccc4Cl)ccc23)cc1 [Compound 673, (R)-[7-(3-Chloro-pyridin-2-yl)-2-(2-methyl-morpholin-4-ylmethyl)-quinazolin-4-yl]-(4-isopropyl-phenyl)-amine]
C[C@@H]1CN(Cc2nc(Nc3ccc(C(F)(F)F)cc3)c3ccc(-c4ncccc4Cl)cc3n2)CCO1 [Compound 674, (R)-[7-(3-Chloro-pyridin-2-yl)-2-(2-methyl-morpholin-4-ylmethyl)-quinazolin-4-yl]-(4-trifluoromethyl-phenyl)-amine]
C[C@@H]1CN(Cc2nc(Nc3ccc(C(C)(C)C)cc3)c3ccc(-c4ccncc4)cc3n2)C[C@H](C)O1 [Compound 675, (4-tert-Butyl-phenyl)-[2-(2,6-dimethyl-morpholin-4-ylmethyl)-7-pyridin-4-yl-quinazolin-4-yl]-amine (cis)]
C[C@@H]1CN(Cc2nc(Nc3ccc(C(C)(C)C)cc3)c3ccc(-c4cccnc4)cc3n2)C[C@H](C)O1 [Compound 676, (4-tert-Butyl-phenyl)-[2-(2,6-dimethyl-morpholin-4-ylmethyl)-7-pyridin-3-yl-quinazolin-4-yl]-amine (cis)]
C[C@@H]1CN(Cc2nc(Nc3ccc(C(C)(C)C)cc3)c3ccc(-c4cncnc4)cc3n2)C[C@H](C)O1 [Compound 677, (4-tert-Butyl-phenyl)-[2-(2,6-dimethyl-morpholin-4-ylmethyl)-7-pyrimidin-5-yl-quinazolin-4-yl]-amine (cis)]
COc1ncc(-c2ccc3c(Nc4ccc(C(C)(C)C)cc4)nc(CN4C[C@@H](C)O[C@@H](C)C4)nc3c2)c(OC)n1 [Compound 678, (4-tert-Butyl-phenyl)-[7-(2,4-dimethoxy-pyrimidin-5-yl)-2-(2,6-dimethyl-morpholin-4-ylmethyl)-quinazolin-4-yl]-amine (cis)]
FC(F)(F)c1ccc(Nc2nc(C3CCNCC3)nc3cc(-c4ncccc4C(F)(F)F)ccc23)cc1 [Compound 679, [2-Piperidin-4-yl-7-(3-trifluoromethyl-pyridin-2-yl)-quinazolin-4-yl]-(4-trifluoromethyl-phenyl)-amine]
CCC(C)c1ccc(Nc2nc(CN3C[C@@H](C)O[C@@H](C)C3)nc3cc(-c4ncccc4Cl)ccc23)cc1 (stereo partly drawn) [Compound 680, (4-sec-Butyl-phenyl)-[7-(3-chloro-pyridin-2-yl)-2-(2,6-dimethyl-morpholin-4-ylmethyl)-quinazolin-4-yl]-amine (cis)]
